Earlier results as cited in US20070237815A1 (priority 2006, published 2007).

Settings: in the elderly

half-life: approximately 72 hours
SMILES: NS(=O)(=O)c1cc(C2(O)NC(=O)c3ccccc32)ccc1Cl (stereo not shown) [chlorthalidone]
